According to ChEMBL document CHEMBL1151555, “Total synthesis of an optically active 8-carba-physostigmine analog: a potent acetylcholinesterase inhibitor” (Bioorg Med Chem Lett, 1991):

Molecular target: Acetylcholinesterase (Homo sapiens, UniProt P22303)
Experiment: Concentration required to inhibit acetylcholinesterase isolated from human erythrocytes

Acetylcholinesterase, sequence (P22303 whole entry): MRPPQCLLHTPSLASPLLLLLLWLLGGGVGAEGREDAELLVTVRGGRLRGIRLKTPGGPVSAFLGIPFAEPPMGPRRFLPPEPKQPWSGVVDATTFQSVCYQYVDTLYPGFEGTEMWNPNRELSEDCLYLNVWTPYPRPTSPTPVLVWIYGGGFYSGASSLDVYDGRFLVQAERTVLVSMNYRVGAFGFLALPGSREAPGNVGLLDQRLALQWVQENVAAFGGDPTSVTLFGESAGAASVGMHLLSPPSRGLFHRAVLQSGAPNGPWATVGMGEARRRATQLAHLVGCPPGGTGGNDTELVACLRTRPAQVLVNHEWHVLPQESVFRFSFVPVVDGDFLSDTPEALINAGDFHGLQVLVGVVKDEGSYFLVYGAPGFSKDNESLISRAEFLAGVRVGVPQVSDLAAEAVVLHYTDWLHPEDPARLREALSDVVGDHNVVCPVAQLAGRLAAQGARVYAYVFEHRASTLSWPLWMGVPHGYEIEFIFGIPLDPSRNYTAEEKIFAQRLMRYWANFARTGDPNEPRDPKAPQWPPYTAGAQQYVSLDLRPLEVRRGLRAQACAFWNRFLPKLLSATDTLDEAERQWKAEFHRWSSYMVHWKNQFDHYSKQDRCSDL

CCCCCCNC(=O)Oc1ccc2c(c1)[C@]1(C)CCN(CC)[C@@H]1C2
IC50: 20 nM

CCCCCCNC(=O)Oc1ccc2c(c1)[C@@]1(C)CCN(CC)[C@H]1C2
IC50: 233 nM
